Experimental data as given in patent US10173982B2, “Picolinamides as fungicides” (Dow AgroSciences LLC, priority 2016, dated 2019).
Like-named read-outs stand apart in the source and are kept apart here.

Legend:
Type in all cases: in vivo
[1] = test system: Phakopsora pachyrhizi; experiment: Fungicidal activity: Asian soybean rust (PHAKPA), disease control on soybean seedlings; details: High volume at 25 ppm
Description: Technical grades of materials were dissolved in acetone, which were then mixed with nine volumes of water containing 0.011% Tween 20. The fungicide solutions were applied onto soybean seedlings using an automated booth sprayer to run-off. All sprayed plants were allowed to air dry prior to further handling.
Soybean plants (variety Williams 82) were grown in soil-less Metro mix, with one plant per pot. Two weeks old seedlings were used for testing. Plants were inoculated either 3 days prior to or 1 day after fungicide treatments. Plants were incubated for 24 h in a dark dew room at 22° C. and 100% relative humidity then transferred to a growth room at 23° C. for disease to develop. Disease severity was assessed on the sprayed leaves.

[2] = test system: Zymoseptoria tritici; experiment: Fungicidal activity: leaf blotch of wheat (SEPTTR), percent disease control on wheat seedlings; details: Zymoseptoria tritici, LV (low volume) activity at 121.5 g/H
Description: Technical grades of materials were dissolved in acetone, which were then mixed with nine volumes of water containing 110 ppm Triton X-100. The fungicide solutions were applied onto wheat seedlings using an automated booth sprayer to run-off. All sprayed plants were allowed to air dry prior to further handling. All fungicides were evaluated using the aforementioned method for their activity vs. all target diseases, unless stated otherwise. Wheat leaf blotch and brown rust activity were also evaluated using track spray applications, in which case the fungicides were formulated as EC formulations, containing 0.1% Trycol 5941 in the spray solutions. Wheat plants (variety Yuma) were grown from seed in a greenhouse in 50% mineral soil/50% soil-less Metro mix until the first leaf was fully emerged, with 7-10 seedlings per pot. These plants were inoculated with an aqueous spore suspension of Zymoseptoria tritici either prior to or after fungicide treatments. After inoculation the plants were kept in 100% relative humidity (one day in a dark dew chamber followed by two to three days in a lighted dew chamber at 20° C.) to permit spores to germinate and infect the leaf. The plants were then transferred to a greenhouse set at 20° C. for disease to develop. When disease symptoms were fully expressed on the 1st leaves of untreated plants, infection levels were assessed on a scale of 0 to 100 percent disease severity. Percent disease control was calculated using the ratio of disease severity on treated plants relative to untreated plants.

[3] = test system: Puccinia triticina; experiment: Fungicidal activity: wheat brown rust (PUCCRT), percent disease control on wheat seedlings; details: Puccinia triticina, LV (low volume) activity at 121.5 g/H
Description: Technical grades of materials were dissolved in acetone, which were then mixed with nine volumes of water containing 110 ppm Triton X-100. The fungicide solutions were applied onto wheat seedlings using an automated booth sprayer to run-off. All sprayed plants were allowed to air dry prior to further handling. All fungicides were evaluated using the aforementioned method for their activity vs. all target diseases, unless stated otherwise. Wheat leaf blotch and brown rust activity were also evaluated using track spray applications, in which case the fungicides were formulated as EC formulations, containing 0.1% Trycol 5941 in the spray solutions. Wheat plants (variety Yuma) were grown from seed in a greenhouse in 50% mineral soil/50% soil-less Metro mix until the first leaf was fully emerged, with 7-10 seedlings per pot. These plants were inoculated with an aqueous spore suspension of Puccinia triticina either prior to or after fungicide treatments. After inoculation the plants were kept in a dark dew room at 22° C. with 100% relative humidity overnight to permit spores to germinate and infect the leaf. The plants were then transferred to a greenhouse set at 24° C. for disease to develop. Fungicide formulation, application and disease assessment followed the procedures as described in the Example A. Results of the evaluations are shown below in Table 4.

[4] = 24 h, 1 Day Protectant, read-out: PHAKPA 1DP disease control rating
[5] = 72 h, 3 Day Curative, read-out: PHAKPA 3DC disease control rating
[6] = 24 h, 1 Day Protectant, read-out: SEPTTR 1DP disease control rating
[7] = 72 h, 3 Day Curative, read-out: SEPTTR 3DC disease control rating
[8] = 24 h, 1 Day Protectant, read-out: PUCCRT 1DP disease control rating
[9] = 72 h, 3 Day Curative, read-out: PUCCRT 3DC disease control rating

## COc1ccnc(C(=O)N[C@@H](C)C(=O)O[C@@H](C)[C@@H](c2ccccc2)[S+]([O-])c2ccc(F)cc2)c1OC(C)=O (stereo partly shown) [Compound 62]
[1]; [4]
  pest or weed control at 25 ppm: ≤ 0%
[1]; [5]
  pest or weed control at 25 ppm: ≤ 0%
[2]; [6]
  pest or weed control at 121.5 g/ha: ≤ 80%
[2]; [7]
  pest or weed control at 121.5 g/ha: ≤ 80%
[3]; [8]
  pest or weed control at 121.5 g/ha: ≤ 0%
[3]; [9]
  pest or weed control at 121.5 g/ha: ≤ 0%

## COc1ccnc(C(=O)N[C@@H](C)C(=O)O[C@@H](C)[C@@H](c2ccccc2)S(=O)(=O)c2ccc(F)cc2)c1OC(C)=O [Compound 64]
[1]; [4]
  pest or weed control at 25 ppm: ≤ 0%
[1]; [5]
  pest or weed control at 25 ppm: ≤ 80%
[2]; [6]
  pest or weed control at 121.5 g/ha: ≤ 80%
[2]; [7]
  pest or weed control at 121.5 g/ha: ≤ 80%
[3]; [8]
  pest or weed control at 121.5 g/ha: ≤ 80%
[3]; [9]
  pest or weed control at 121.5 g/ha: ≤ 0%

## COc1ccnc(C(=O)N[C@@H](C)C(=O)O[C@@H](C)[C@H](Sc2cccc(Cl)c2)c2ccccc2)c1OC(C)=O [Compound 65]
[1]; [4]
  pest or weed control at 25 ppm: ≤ 80%
[1]; [5]
  pest or weed control at 25 ppm: ≤ 80%
[2]; [6]
  pest or weed control at 121.5 g/ha: > 80%
[2]; [7]
  pest or weed control at 121.5 g/ha: ≤ 0%
[3]; [8]
  pest or weed control at 121.5 g/ha: > 80%
[3]; [9]
  pest or weed control at 121.5 g/ha: ≤ 80%

## COc1ccnc(C(=O)N[C@@H](C)C(=O)O[C@@H](C)[C@H](Sc2ccc(C)cc2)c2ccccc2)c1OC(C)=O [Compound 66]
[1]; [4]
  pest or weed control at 25 ppm: ≤ 80%
[1]; [5]
  pest or weed control at 25 ppm: ≤ 80%
[2]; [6]
  pest or weed control at 121.5 g/ha: > 80%
[2]; [7]
  pest or weed control at 121.5 g/ha: ≤ 80%
[3]; [8]
  pest or weed control at 121.5 g/ha: ≤ 80%
[3]; [9]
  pest or weed control at 121.5 g/ha: ≤ 80%

## COc1ccnc(C(=O)N[C@@H](C)C(=O)O[C@@H](C)[C@H](Sc2ccc(C)cc2C)c2ccccc2)c1OC(C)=O [Compound 67]
[1]; [4]
  pest or weed control at 25 ppm: ≤ 80%
[1]; [5]
  pest or weed control at 25 ppm: ≤ 0%
[2]; [6]
  pest or weed control at 121.5 g/ha: > 80%
[2]; [7]
  pest or weed control at 121.5 g/ha: > 80%
[3]; [8]
  pest or weed control at 121.5 g/ha: > 80%
[3]; [9]
  pest or weed control at 121.5 g/ha: ≤ 80%

## COc1ccnc(C(=O)N[C@@H](C)C(=O)O[C@@H](C)[C@H](SCc2ccccc2)c2ccccc2)c1OC(C)=O [Compound 68]
[1]; [4]
  pest or weed control at 25 ppm: > 80%
[1]; [5]
  pest or weed control at 25 ppm: ≤ 80%
[2]; [6]
  pest or weed control at 121.5 g/ha: > 80%
[2]; [7]
  pest or weed control at 121.5 g/ha: ≤ 80%
[3]; [8]
  pest or weed control at 121.5 g/ha: > 80%
[3]; [9]
  pest or weed control at 121.5 g/ha: > 80%

## COc1ccnc(C(=O)N[C@@H](C)C(=O)O[C@@H](C)[C@H](SCC(C)C)c2ccccc2)c1OC(C)=O [Compound 69]
[1]; [4]
  pest or weed control at 25 ppm: > 80%
[1]; [5]
  pest or weed control at 25 ppm: ≤ 80%
[2]; [6]
  pest or weed control at 121.5 g/ha: ≤ 80%
[2]; [7]
  pest or weed control at 121.5 g/ha: ≤ 0%
[3]; [8]
  pest or weed control at 121.5 g/ha: > 80%
[3]; [9]
  pest or weed control at 121.5 g/ha: ≤ 80%

## COc1ccnc(C(=O)N[C@@H](C)C(=O)O[C@@H](C)[C@H](SC(C)C)c2ccccc2)c1OC(C)=O [Compound 70]
[1]; [4]
  pest or weed control at 25 ppm: > 80%
[1]; [5]
  pest or weed control at 25 ppm: ≤ 80%
[2]; [6]
  pest or weed control at 121.5 g/ha: ≤ 80%
[2]; [7]
  pest or weed control at 121.5 g/ha: > 80%
[3]; [8]
  pest or weed control at 121.5 g/ha: > 80%
[3]; [9]
  pest or weed control at 121.5 g/ha: ≤ 80%

## COc1ccnc(C(=O)N[C@@H](C)C(=O)O[C@@H](C)[C@H](Sc2ccc(C(F)(F)F)cn2)c2ccccc2)c1OC(C)=O [Compound 71]
[1]; [4]
  pest or weed control at 25 ppm: ≤ 80%
[1]; [5]
  pest or weed control at 25 ppm: ≤ 80%
[2]; [6]
  pest or weed control at 121.5 g/ha: ≤ 80%
[2]; [7]
  pest or weed control at 121.5 g/ha: ≤ 80%
[3]; [8]
  pest or weed control at 121.5 g/ha: ≤ 0%
[3]; [9]
  pest or weed control at 121.5 g/ha: ≤ 80%

## COc1ccnc(C(=O)N[C@@H](C)C(=O)O[C@@H](C)[C@H](Sc2ccc(F)cc2)c2ccc(F)cc2C)c1OC(C)=O [Compound 75]
[2]; [6]
  pest or weed control at 121.5 g/ha: > 80%
[2]; [7]
  pest or weed control at 121.5 g/ha: > 80%
[3]; [8]
  pest or weed control at 121.5 g/ha: ≤ 80%
[3]; [9]
  pest or weed control at 121.5 g/ha: ≤ 0%
